Measurements from US10344060B2 (priority 2013, dated 2019).
Where “and” joins values, the source holds several entries; their conditions need not be identical. Equal entries are not always repeated. Entries after “also recorded” stand apart in the source; their conditions may differ. Where two headings read alike, the source gives them in different places.

Legend:
hNav1.7 [1] = target: T1, hNav1.7 (Homo sapiens, UniProt Q15858); assay: cell-based; format: cell-based
hNav1.7 [2] = target: T1, hNav1.7; assay: cell-based; format: cell-based; conditions: for block of hNav1.7 current, in words: 100 pM; for 1.x/1.7: hNav1.7 / hNav1.7
mouse Nav1.4 = mouse Nav1.4 (Mus musculus, UniProt Q9ER60); assay: cell-based; conditions: for IC50: PatchXpress, tonic block, mouse Nav1.4, read-out: PX mNav1.4 Tonic IC50; for mNav1.4/mNav1.7: ratio of PX tonic IC50, mouse Nav1.4 over mouse Nav1.7
mouse Nav1.4, sequence (Q9ER60 whole entry): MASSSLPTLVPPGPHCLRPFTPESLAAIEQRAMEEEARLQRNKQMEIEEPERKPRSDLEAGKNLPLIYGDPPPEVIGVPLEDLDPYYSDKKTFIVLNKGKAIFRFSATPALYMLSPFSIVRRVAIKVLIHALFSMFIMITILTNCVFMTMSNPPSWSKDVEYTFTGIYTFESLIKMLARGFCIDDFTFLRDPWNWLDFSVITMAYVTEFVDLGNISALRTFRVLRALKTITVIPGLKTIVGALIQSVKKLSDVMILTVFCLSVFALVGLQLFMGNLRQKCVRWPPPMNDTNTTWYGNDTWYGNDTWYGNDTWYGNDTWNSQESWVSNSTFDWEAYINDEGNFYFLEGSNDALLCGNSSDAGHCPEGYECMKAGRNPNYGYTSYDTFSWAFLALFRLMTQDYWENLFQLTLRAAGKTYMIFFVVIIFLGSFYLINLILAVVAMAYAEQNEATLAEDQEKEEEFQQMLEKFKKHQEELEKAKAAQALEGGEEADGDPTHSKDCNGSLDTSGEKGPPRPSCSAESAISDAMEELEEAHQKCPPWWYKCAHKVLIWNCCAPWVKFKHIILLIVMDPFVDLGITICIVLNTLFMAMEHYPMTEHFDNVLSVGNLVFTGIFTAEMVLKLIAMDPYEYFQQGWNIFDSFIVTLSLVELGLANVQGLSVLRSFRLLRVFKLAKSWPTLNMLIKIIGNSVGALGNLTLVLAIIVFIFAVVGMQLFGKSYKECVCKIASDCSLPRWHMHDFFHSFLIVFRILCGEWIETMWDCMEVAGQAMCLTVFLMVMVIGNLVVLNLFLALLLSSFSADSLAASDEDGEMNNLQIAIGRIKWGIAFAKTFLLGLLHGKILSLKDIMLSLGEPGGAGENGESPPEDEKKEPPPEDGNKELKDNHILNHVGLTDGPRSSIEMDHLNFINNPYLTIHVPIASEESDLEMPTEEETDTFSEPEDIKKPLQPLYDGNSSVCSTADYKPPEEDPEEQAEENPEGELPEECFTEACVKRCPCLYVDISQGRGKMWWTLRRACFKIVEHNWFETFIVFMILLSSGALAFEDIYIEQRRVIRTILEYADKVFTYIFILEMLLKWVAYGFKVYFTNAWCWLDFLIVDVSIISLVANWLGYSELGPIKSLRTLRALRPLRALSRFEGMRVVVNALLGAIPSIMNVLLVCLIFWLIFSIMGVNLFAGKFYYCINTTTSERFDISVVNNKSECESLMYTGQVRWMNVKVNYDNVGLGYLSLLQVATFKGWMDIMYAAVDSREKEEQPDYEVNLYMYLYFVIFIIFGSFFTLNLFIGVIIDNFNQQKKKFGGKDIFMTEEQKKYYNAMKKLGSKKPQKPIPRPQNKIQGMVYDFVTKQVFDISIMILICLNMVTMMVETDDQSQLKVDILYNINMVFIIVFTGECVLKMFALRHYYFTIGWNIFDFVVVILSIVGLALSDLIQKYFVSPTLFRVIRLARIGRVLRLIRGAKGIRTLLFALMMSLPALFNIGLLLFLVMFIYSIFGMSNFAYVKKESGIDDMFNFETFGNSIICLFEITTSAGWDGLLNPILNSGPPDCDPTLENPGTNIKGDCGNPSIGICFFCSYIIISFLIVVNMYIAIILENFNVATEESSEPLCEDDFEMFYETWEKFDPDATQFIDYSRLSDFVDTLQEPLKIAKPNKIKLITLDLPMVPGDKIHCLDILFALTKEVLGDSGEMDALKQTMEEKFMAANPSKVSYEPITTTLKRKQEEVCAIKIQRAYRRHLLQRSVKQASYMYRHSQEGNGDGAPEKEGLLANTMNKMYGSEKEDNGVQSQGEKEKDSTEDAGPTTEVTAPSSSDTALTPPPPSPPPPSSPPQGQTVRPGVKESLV

rNav1.7 = rNav1.7 (Rattus norvegicus, UniProt O08562); assay: cell-based; conditions: for IC50: PatchXpress, tonic block, rat Nav1.7, read-out: PX rNav1.7 Tonic IC50; for rNav1.7/hNav1.7: ratio of PX tonic IC50, rat Nav1.7 over human Nav1.7
mNav1.7 = mNav1.7 (Mus musculus, UniProt Q62205); assay: cell-based; conditions: for IC50: PatchXpress, tonic block, mouse Nav1.7, read-out: PX mNav1.7 Tonic IC50; for mNav1.7/hNav1.7: ratio of PX tonic IC50, mouse Nav1.7 over human Nav1.7
mNav1.7, sequence (Q62205 whole entry): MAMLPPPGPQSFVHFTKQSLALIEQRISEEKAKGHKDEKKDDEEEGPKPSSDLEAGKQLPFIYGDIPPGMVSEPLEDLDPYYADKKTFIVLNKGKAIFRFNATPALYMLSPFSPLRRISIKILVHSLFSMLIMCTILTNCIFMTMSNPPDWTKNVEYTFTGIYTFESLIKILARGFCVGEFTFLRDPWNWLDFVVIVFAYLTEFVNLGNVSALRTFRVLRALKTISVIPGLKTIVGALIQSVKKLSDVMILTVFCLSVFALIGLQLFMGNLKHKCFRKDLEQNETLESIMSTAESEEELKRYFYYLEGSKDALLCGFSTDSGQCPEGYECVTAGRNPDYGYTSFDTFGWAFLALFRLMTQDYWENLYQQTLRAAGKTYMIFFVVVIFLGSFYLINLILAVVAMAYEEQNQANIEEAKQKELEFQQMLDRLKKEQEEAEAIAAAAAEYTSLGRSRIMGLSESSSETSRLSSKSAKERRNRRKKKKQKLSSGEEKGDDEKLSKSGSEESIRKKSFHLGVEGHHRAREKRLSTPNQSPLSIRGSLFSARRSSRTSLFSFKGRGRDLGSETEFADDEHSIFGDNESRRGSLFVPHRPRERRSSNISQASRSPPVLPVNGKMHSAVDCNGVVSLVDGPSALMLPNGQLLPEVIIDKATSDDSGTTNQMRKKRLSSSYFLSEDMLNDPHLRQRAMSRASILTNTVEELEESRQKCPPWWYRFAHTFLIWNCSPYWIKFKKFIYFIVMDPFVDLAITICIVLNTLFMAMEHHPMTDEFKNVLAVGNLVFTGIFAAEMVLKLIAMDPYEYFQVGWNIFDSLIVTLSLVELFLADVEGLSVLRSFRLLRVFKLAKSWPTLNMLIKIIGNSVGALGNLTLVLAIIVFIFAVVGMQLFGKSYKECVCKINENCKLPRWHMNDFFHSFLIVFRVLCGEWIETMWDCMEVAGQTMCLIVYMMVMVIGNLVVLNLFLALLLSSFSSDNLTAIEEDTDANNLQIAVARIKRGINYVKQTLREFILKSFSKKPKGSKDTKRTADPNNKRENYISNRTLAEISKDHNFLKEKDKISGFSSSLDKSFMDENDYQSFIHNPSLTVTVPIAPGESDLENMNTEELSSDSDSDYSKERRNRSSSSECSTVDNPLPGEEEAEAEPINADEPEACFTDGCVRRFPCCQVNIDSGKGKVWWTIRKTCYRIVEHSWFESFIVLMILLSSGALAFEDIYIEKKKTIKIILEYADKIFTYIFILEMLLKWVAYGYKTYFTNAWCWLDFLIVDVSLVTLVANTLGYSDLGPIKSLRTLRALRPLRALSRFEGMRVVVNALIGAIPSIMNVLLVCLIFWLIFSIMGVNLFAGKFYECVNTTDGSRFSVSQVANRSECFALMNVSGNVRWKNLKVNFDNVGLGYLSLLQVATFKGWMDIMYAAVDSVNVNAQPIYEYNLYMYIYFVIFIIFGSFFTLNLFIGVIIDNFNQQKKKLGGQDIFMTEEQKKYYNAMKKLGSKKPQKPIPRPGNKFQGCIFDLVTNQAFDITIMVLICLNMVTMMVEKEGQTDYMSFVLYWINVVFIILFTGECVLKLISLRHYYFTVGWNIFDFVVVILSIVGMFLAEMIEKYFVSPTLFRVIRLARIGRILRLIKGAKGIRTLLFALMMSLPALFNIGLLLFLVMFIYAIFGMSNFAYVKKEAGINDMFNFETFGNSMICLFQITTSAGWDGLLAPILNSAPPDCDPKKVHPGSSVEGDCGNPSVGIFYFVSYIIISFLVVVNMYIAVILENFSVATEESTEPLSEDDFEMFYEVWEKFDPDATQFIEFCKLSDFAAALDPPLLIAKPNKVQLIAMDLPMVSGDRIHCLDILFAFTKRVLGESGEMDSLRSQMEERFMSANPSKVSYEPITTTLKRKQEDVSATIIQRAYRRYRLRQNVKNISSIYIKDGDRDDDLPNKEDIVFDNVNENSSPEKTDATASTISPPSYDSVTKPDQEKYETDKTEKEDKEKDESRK

[3] = system: TTX-sensitive Nav channels in mouse DRG neuron
hNav1.6 = hNav1.6 (Homo sapiens, UniProt Q9UQD0); assay: cell-based; format: cell-based; conditions: Table 15

| Molecule | IC50 (mouse Nav1.4) [nM] | mNav1.4/mNav1.7 (mouse Nav1.4) | IC50 (rNav1.7) [nM] | rNav1.7/hNav1.7 (rNav1.7) | IC50 (mNav1.7) [nM] | mNav1.7/hNav1.7 (mNav1.7) | also measured |
| --- | --- | --- | --- | --- | --- | --- | --- |
| [Phe6,Atz(2 kDa EtO-PEG*-[Phe6,Atz13*]GpTx-1(1-34)1)13]GpTx-1(1-34) [Homodimeric Conjugate No. 3] |  |  |  |  |  |  | Wash out (hNav1.7 [1]): No; IC50 (hNav1.7 [1]; read-out: Nav1.7 PX IC50): 13 nM; IC50 (hNav1.7 [2]; read-out: Nav1.7 whole cell patch clamp [WCPC] IC50): 0.58 nM |
| C#CC[C@H](N)C(=O)NCCCC[C@@H]1NC(=O)[C@H](CCCNC(=N)N)NC(=O)[C@H](CCCCN)NC(=O)[C@H](CO)NC(=O)[C@H](CC(=O)O)NC(=O)[C@@H]2CSSC[C@@H]3NC(=O)[C@H](CCCNC(=N)N)NC(=O)[C@H](CC(C)C)NC(=O)CNC(=O)[C@H](CCC(=O)O)NC(=O)[C@H](CSSC[C@H](NC(=O)[C@H](Cc4ccc(O)cc4)NC(=O)[C@@H](N)CC#N)C(=O)N[C@@H](CCC(N)=O)C(=O)N[C@@H](CCCCN)C(=O)N[C@@H](Cc4c[nH]c5ccccc45)C(=O)N[C@@H](CCCC)C(=O)N[C@@H](Cc4c[nH]c5ccccc45)C(=O)N[C@@H]([C@@H](C)O)C(=O)N2)NC(=O)[C@H](CSSC[C@@H](C(=O)N[C@@H](CCCNC(=N)N)C(=O)N[C@@H](CCCCN)C(=O)N[C@@H](CCC(=O)O)C(=O)N[C@H](C(N)=O)[C@@H](C)CC)NC(=O)[C@H](Cc2c[nH]c4ccccc24)NC(=O)[C@H](CC(C)C)NC(=O)[C@H](CCCCN)NC3=O)NC1=O | 62.7 | 6.4 | 2.73 | 1.71 | 9.79 | 6.15 |  |
| C#CC[C@H](N)C(=O)N[C@@H](Cc1ccc(O)cc1)C(=O)N[C@H]1CSSC[C@@H]2NC(=O)[C@@H]3CSSC[C@@H](C(=O)N[C@@H](CCCNC(=N)N)C(=O)N[C@@H](CCCCN)C(=O)N[C@@H](CCC(=O)O)C(=O)N[C@H](C(N)=O)[C@@H](C)CC)NC(=O)[C@H](Cc4c[nH]c5ccccc45)NC(=O)[C@H](CC(C)C)NC(=O)[C@H](CCCCN)NC(=O)[C@H](CSSC[C@H](NC(=O)[C@H]([C@@H](C)O)NC(=O)[C@H](Cc4c[nH]c5ccccc45)NC(=O)[C@H](CCCC)NC(=O)[C@H](Cc4c[nH]c5ccccc45)NC(=O)[C@H](CCCCN)NC(=O)[C@H](CCC(N)=O)NC1=O)C(=O)N[C@@H](CC(=O)O)C(=O)N[C@@H](CO)C(=O)N[C@@H](CCCCN)C(=O)N[C@@H](CCCNC(=N)N)C(=O)N[C@@H](C)C(=O)N3)NC(=O)[C@H](CCCNC(=N)N)NC(=O)[C@H](CC(C)C)NC(=O)CNC(=O)[C@H](CCC(=O)O)NC2=O [Pra-[Nle6, Glu28]JzTx-V(1-29)] | 119 | 12 | 0.641 | 1.17 | 9.86 | 17.99 |  |
| C#CC[C@H](N)C(=O)N[C@@H](Cc1ccc(O)cc1)C(=O)N[C@H]1CSSC[C@@H]2NC(=O)[C@@H]3CSSC[C@@H](C(=O)N[C@@H](CCCNC(=N)N)C(=O)N[C@@H](CCCCN)C(=O)N[C@@H](CCC(=O)O)C(=O)N[C@H](C(N)=O)[C@@H](C)CC)NC(=O)[C@H](Cc4c[nH]c5ccccc45)NC(=O)[C@H](CC(C)C)NC(=O)[C@H](CCCCN)NC(=O)[C@H](CSSC[C@H](NC(=O)[C@H]([C@@H](C)O)NC(=O)[C@H](Cc4c[nH]c5ccccc45)NC(=O)[C@H](CCCC)NC(=O)[C@H](Cc4c[nH]c5ccccc45)NC(=O)[C@H](CCCCN)NC(=O)[C@H](CCC(N)=O)NC1=O)C(=O)N[C@@H](CC(=O)O)C(=O)N[C@@H](CO)C(=O)N[C@@H](CCC(=O)O)C(=O)N[C@@H](CCCNC(=N)N)C(=O)N[C@@H](C)C(=O)N3)NC(=O)[C@H](CCCNC(=N)N)NC(=O)[C@H](CC(C)C)NC(=O)CNC(=O)[C@H](CCC(=O)O)NC2=O [Pra-[Nle6; Glu12, 28]JzTx-V(1-29)] | 548 | 34 | 2.66 | 1.54 | 16.2 | 9.37 |  |
| C#CC[C@H](N)C(=O)N[C@@H](Cc1ccc(O)cc1)C(=O)N[C@H]1CSSC[C@@H]2NC(=O)[C@@H]3CSSC[C@@H](C(=O)N[C@@H](CCCNC(=N)N)C(=O)N[C@@H](CCCCN)C(=O)N[C@H](C(=O)N[C@H](C(N)=O)[C@@H](C)CC)[C@@H](C)CC)NC(=O)[C@H](Cc4c[nH]c5ccccc45)NC(=O)[C@H](CC(C)C)NC(=O)[C@H](CCCCN)NC(=O)[C@H](CSSC[C@H](NC(=O)[C@H]([C@@H](C)O)NC(=O)[C@H](Cc4c[nH]c5ccccc45)NC(=O)[C@H](CCCC)NC(=O)[C@H](Cc4c[nH]c5ccccc45)NC(=O)[C@H](CCCCN)NC(=O)[C@H](CCC(N)=O)NC1=O)C(=O)N[C@@H](CC(=O)O)C(=O)N[C@@H](CO)C(=O)N[C@@H](CCCCN)C(=O)N[C@@H](CCCNC(=N)N)C(=O)N[C@@H](C)C(=O)N3)NC(=O)[C@H](CCCNC(=N)N)NC(=O)[C@H](CC(C)C)NC(=O)CNC(=O)[C@H](CCC(=O)O)NC2=O [compound 425] |  |  |  |  |  |  | IC50 [3]: 5.35 nM; inhibition of TTX-sensitive sodium current, in words ([3]; 1 nM as printed, mouse DRG neurons): almost complete inhibition; block of TTX-sensitive Nav current, in words ([3]; 100 nM): blocked most TTX-sensitive Nav current; fold more potent than JzTx-V in inhibition of TTX-sensitive current ([3]; mouse DRG neurons): about 3 fold; 1.x/1.7 ([3]; partially inactivated, mTTX-S / hNav1.7): 6335; IC50 (hNav1.7 [1]; Table 15, read-out: PX hNav1.7 Tonic IC50): 1.2 nM; block of hNav1.7 current, in words (hNav1.7 [2]; held at −77 mV, partially inactivated state): fully blocked Nav1.7 current; also recorded: complete inhibition; block of hNav1.7 current, in words (hNav1.7 [2]; held at −140 mV, fully non-inactivated state): fully blocked Nav1.7 current; also recorded: complete inhibition; improvement in hNav1.7 potency over wild type JzTx-V (hNav1.7 [2]; WCPC format): ~200 fold and 190 fold; 1.x/1.7 (hNav1.7 [2]; fully non-inactivated): 1; 1.x/1.7 (hNav1.7 [2]; partially inactivated): 1; Nav1.6/Nav1.7 (hNav1.6; ratio of PX tonic IC50 values): 57; IC50 (hNav1.6; read-out: PX hNav1.6 Tonic IC50): 67.9 nM |
| C#CC[C@H](N)C(=O)N[C@@H](Cc1ccc(O)cc1)C(=O)N[C@H]1CSSC[C@@H]2NC(=O)[C@@H]3CSSC[C@@H](C(=O)N[C@@H](CCCNC(=N)N)C(=O)N[C@@H](CCCCN)C(=O)N[C@@H](CCC(=O)O)C(=O)N[C@H](C(N)=O)[C@@H](C)CC)NC(=O)[C@H](Cc4c[nH]c5ccccc45)NC(=O)[C@H](CC(C)C)NC(=O)[C@H](CCCCN)NC(=O)[C@H](CSSC[C@H](NC(=O)[C@H]([C@@H](C)O)NC(=O)[C@H](Cc4c[nH]c5ccccc45)NC(=O)[C@H](CCCC)NC(=O)[C@H](Cc4c[nH]c5ccccc45)NC(=O)[C@H](CCCCN)NC(=O)[C@H](CCC(N)=O)NC1=O)C(=O)N[C@@H](CC(=O)O)C(=O)N[C@@H](CCC(=O)O)C(=O)N[C@@H](CCCCN)C(=O)N[C@@H](CCCNC(=N)N)C(=O)N[C@@H](C)C(=O)N3)NC(=O)[C@H](CCCNC(=N)N)NC(=O)[C@H](CC(C)C)NC(=O)CNC(=O)[C@H](CCC(=O)O)NC2=O [Pra-[Nle6; Glu11, 28]JzTx-V(1-29)] |  | 34 |  | 0.95 |  | 10.57 |  |
| C#CC[C@@H]1NC(=O)[C@@H]2CSSC[C@H](NC(=O)[C@H](Cc3ccc(O)cc3)NC(=O)[C@@H](N)CC#N)C(=O)N[C@@H](CCC(N)=O)C(=O)N[C@@H](CCCCN)C(=O)N[C@@H](Cc3c[nH]c4ccccc34)C(=O)N[C@@H](CCCC)C(=O)N[C@@H](Cc3c[nH]c4ccccc34)C(=O)N[C@@H]([C@@H](C)O)C(=O)N[C@H]3CSSC[C@H](NC(=O)[C@H](CCCNC(=N)N)NC(=O)[C@H](CC(C)C)NC(=O)CNC1=O)C(=O)N[C@@H](CCCCN)C(=O)N[C@@H](CC(C)C)C(=O)N[C@@H](Cc1c[nH]c4ccccc14)C(=O)N[C@H](C(=O)N[C@@H](CCCNC(=N)N)C(=O)N[C@@H](CCCCN)C(=O)N[C@@H](CCC(=O)O)C(=O)N[C@H](C(N)=O)[C@@H](C)CC)CSSC[C@H](NC(=O)[C@H](C)NC(=O)[C@H](CCCNC(=N)N)NC(=O)[C@H](CCCCN)NC(=O)[C@H](CO)NC(=O)[C@H](CC(=O)O)NC3=O)C(=O)N2 [CyA-[Nle6, Pra17, Glu28]JzTx-V(1-29)] | 32.2 |  | 1.41 |  | 4.8 |  |  |
| C#CC[C@H](N)C(=O)N[C@@H](Cc1ccc(O)cc1)C(=O)N[C@H]1CSSC[C@@H]2NC(=O)[C@@H]3CSSC[C@@H](C(=O)N[C@@H](CCCNC(=N)N)C(=O)N[C@@H](CCCCN)C(=O)N[C@@H](CCC(=O)O)C(=O)N[C@H](C(N)=O)[C@@H](C)CC)NC(=O)[C@H](Cc4c[nH]c5ccccc45)NC(=O)[C@H](CC(C)C)NC(=O)[C@H](CCCCN)NC(=O)[C@H](CSSC[C@H](NC(=O)[C@H]([C@@H](C)O)NC(=O)[C@H](Cc4c[nH]c5ccccc45)NC(=O)[C@H](CCCC)NC(=O)[C@H](Cc4c[nH]c5ccccc45)NC(=O)[C@H](CCCCN)NC(=O)[C@H](CCC(N)=O)NC1=O)C(=O)N[C@@H](CC(=O)O)C(=O)N[C@@H](CO)C(=O)N[C@@H](CCC(=O)O)C(=O)N[C@@H](CCCNC(=N)N)C(=O)N[C@@H](C)C(=O)N3)NC(=O)[C@H](CCCNC(=N)N)NC(=O)[C@H](CC(C)C)NC(=O)CNC(=O)[C@H](CCCCN)NC2=O [Pra-[Nle6; Glu12, 28; Lys17]JzTx-V(1-29)] | 63 | 14 | 2.01 | 0.23 | 4.4 | 0.50 |  |
